Data set [1] has as its system SK-N-MC. In words: Antiproliferative activity against human SK-N-MC cells. It is filed as functional, cell-based.
For data set [2], the system named is SK-N-MC. Nature of the data set: Antiproliferative activity against human SK-N-MC cells after 96 hrs by MTT assay. It is filed as functional, cell-based. Background: Tetrazolium assays rely on reduction of a dye to a coloured formazan, in cell work by metabolically active cells.
In data set [3] the test system is SK-N-MC. Nature of the data set: cells. Conditions: Homo sapiens, 72 h.
Description: Antiproliferative activity against human SK-N-MC cells after 72 hrs by MTT assay
Data set [4] relates to M109. Nature of the data set: Antitumor activity against mouse M109 cells implanted in CD2F1 hybrid mouse assessed as reduction of tumor weight at 0.4 mg/kg, iv administered 4 days after implantation BID for 5 days measured on day 12 after implantation relative to control. Details: scale not given: the % may be the effect or the level left. It is filed as functional.
Data set [5] has as its system SK-MEL-28. In words: Antitumor activity against human SK-MEL-28 cells implanted in nude mouse assessed as reduction in tumor growth at 0.4 mg/kg/day measured up to 7 weeks relative to control. On the set-up: scale not given: the % may be the effect or the level left. It is filed as functional.
Data set [6] is described as follows: Toxicity in iv dosed CD2F1 hybrid mouse assessed as maximum tolerated dose administered BID at an interval of 6 hrs for 5 days a week over 2 weeks. It is filed as organism-based. Conditions: in vivo.
Data set [7] concerns SK-N-MC. Nature of the data set: Iron chelating activity in human SK-N-MC cells assessed as cellular iron efflux at 25 uM after 3 hrs relative to control. It is filed as functional.
Data set [8] relates to SK-N-MC. Nature of the data set: Effect on iron metabolism in human SK-N-MC cells assessed as cellular iron uptake from transferrin at 25 uM after 3 hrs in presence of pronase relative to control. It is filed as functional.
In data set [9] the test system is SK-N-MC. In words: Antiproliferative activity against human SK-N-MC cells by MTT assay. It is filed as functional, cell-based.
Data set [10] relates to M109. Nature of the data set: Antitumor activity against mouse M109 cells implanted in CD2F1 hybrid mouse assessed as reduction of tumor weight at 6 mg/kg, iv administered 4 days after implantation BID for 5 days measured on day 12 after implantation relative to control. It is filed as functional. Details: scale not given: the % may be the effect or the level left.
Data set [11] deals with CHP-126. In words: Antitumor activity against human CHP126 cells at 60 uM after 72 hrs. It is filed as functional.
The nature of data set [12]: Antitumor activity against human CHP100 cells at 60 uM after 72 hrs. It is filed as functional.
Data set [13] relates to Rattus norvegicus. Nature of the data set: Iron chelating activity in rat assessed as faecal iron excretion at 25 to 100 mg/kg, po administered as single dose relative to basal level. Conditions: dose mg/kg 25-100. It is filed as functional, Feces.
The subject of data set [14] is MRC5. Nature of the data set: Antiproliferative activity against human MRC5 cells after 72 hrs by MTT assay. Conditions: MRC5, 72 h. It is filed as cell-based.

Usually IC50 stands for the concentration needed to halve the response being measured. The term MTD denotes the largest dose that counted as tolerated.

Some results are limits rather than exact numbers.

As for `O=C(N/N=C/c1c(O)ccc2ccccc12)c1ccncc1`, the IC50 came to 300 nM in [1], 1000 nM in [2] and 300 nM in data set [3].
Consider `CN(C)C(=S)NN=C(c1ccccn1)c1ccccn1`, for which the Activity in [4] is 47%; in data set [5] it was 8%; in data set [7] it was 47%; in data set [8], 9%. Moreover, the MTD at 2 weeks in data set [6] was 0.4 mg/kg. Besides, in data set [3], the IC50 came out at 30 nM.
In the case of `O=C(N/N=C(\c1ccccc1)c1ccccn1)c1ccccc1`, the IC50 in data set [9] is 1000 nM.
With `NC(=S)N/N=C/c1ncccc1N` [TRIAPINE], in data set [6], the MTD at 2 weeks came to 6 mg/kg. For the same compound, in data set [10], the Activity came out at 10%.
For `CC(=O)N(O)CCCCCNC(=O)CCC(=O)N(O)CCCCCNC(=O)CCC(=O)N(O)CCCCCN` [DEFEROXAMINE], the IC50 in [1] worked out at 22000 nM; in [3] it was 5000 nM. The Activity in data set [11] and in data set [12] was 80% in each case.
As for `Cc1ncc(CO)c(/C=N/NC(=O)c2ccncc2)c1O` [PYRIDOXAL ISONICOTINOYL HYDRAZONE], the “fold change (FC)” value in [13] is given as 8.
With `NC(=S)N/N=C/c1c(O)ccc2ccccc12`, the 50% inhibitory concentration (IC50) in [3] was 500 nM; in data set [14], above 25000 nM.
`O=C(N/N=C/c1ccccn1)c1cccs1` came in with an IC50 in [9] of 1000 nM.

The values above are taken from ChEMBL document CHEMBL1154773, “Thiosemicarbazones from the old to new: iron chelators that are more than just ribonucleotide reductase inhibitors” (J Med Chem, 2009).
